The record followed here is article PMC9154793, “Design, synthesis, and biological evaluation of triazole-pyrimidine-methylbenzonitrile derivatives as dual A2A/A2B adenosine receptor antagonists” (Journal of Enzyme Inhibition and Medicinal Chemistry, 2022).

Broadly, the inhibition is the drop in the measured response relative to a control, in per cent. One may read the melting point as the temperature of the solid-liquid transition. For orientation: IC50 means the concentration that gives 50% inhibition.

In series [1] the target is T1, human A2A AR (Homo sapiens, UniProt P29274). Briefly: cAMP functional assay in CHO-K1/ADORA2A/Gα15 cells (NECA-stimulated, HTRF).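 Further: inhibition of NECA-driven intracellular cAMP build-up in the A2A-expressing cells, quantified with cAMP-d2 plus Eu3+-labelled anti-cAMP detection reagent.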 Type of series: cell-based. On the technique in general: Time-resolved FRET reads energy transfer from a long-lived donor to a nearby acceptor.
Experimental: (§16) In the cAMP assay, CHO-K1/ADORA2A/Gα15 cells expressing human A2A AR and CHO-K1/ADORA2b/Gα15 cells expressing human A2B AR were activated by 5′-(N-ethylcarboxamido)adenosine (NECA) and triggered the accumulation of intracellular cAMP concentration.
(§17) CHO-K1/ADORA2A/Gα15 cells expressing human A2A AR and CHO-K1/ADORA2b/Gα15 cells expressing human A2B AR were both constructed by Genscript Biotech Corporation. […] The test stock solutions were diluted with different gradients for use. The procedure was exemplified by the cAMP functional assay on the A2A receptor: 10,000 cells/well of CHO-K1/ADORA2A/Gα15 were seeded in a 384-well plate in 20 μl of assay buffer. […] Then, 10 μl of detection reagent (cAMP-d2 and anti-cAMP-Eu3+) was added into each well of the plate and incubated at room temperature for 1 h.
Series [2] deals with T2, human A2B AR (Homo sapiens, UniProt P29275).
T2 sequence (P29275 1-332): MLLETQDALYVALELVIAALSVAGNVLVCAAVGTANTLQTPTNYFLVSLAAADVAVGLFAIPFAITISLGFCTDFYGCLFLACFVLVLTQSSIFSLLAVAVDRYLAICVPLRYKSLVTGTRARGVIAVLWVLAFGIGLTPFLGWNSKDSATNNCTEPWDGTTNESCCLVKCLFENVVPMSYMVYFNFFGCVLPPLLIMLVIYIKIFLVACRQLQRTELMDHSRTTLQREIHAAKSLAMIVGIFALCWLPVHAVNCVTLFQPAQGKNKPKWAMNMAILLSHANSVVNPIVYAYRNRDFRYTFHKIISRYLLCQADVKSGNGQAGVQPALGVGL
In words: cAMP functional assay in CHO-K1/ADORA2b/Gα15 cells (NECA-stimulated, HTRF). It is filed as cell-based.
Experimental: as §16, §17

Series [3] has as its target T1, human A2A AR. Briefly: A2A AR radioligand binding assay ([3H]-ZM241385, HEK-293 cell membranes). How it is done:
We further tested the IC50 values of compounds 7f, 7i, 17, 22, and AB928 in inhibiting the cAMP production of CHO cells expressing hA2A AR or hA2B AR (Table 2). […] In addition, the competitive binding experiments of compounds 7f, 7i, and AB928 were performed using membrane preparation of HEK-293 cells expressing human A2A AR (Table 3).
The target compounds were tested to evaluate their affinity for the A2A AR on HEK-293 cell membranes expressing human A2A AR. [^3H]-ZM241385 was used as a radioligand. The assay buffer (50 mM Tris-HCl, pH 7.4; 10 mM MgCl2; 1 mM EDTA; 1 μg/ml adenosine deaminase), wash buffer (50 mM Tris-HCl, pH 7.4; 154 mM NaCl), and 0.5% PEI solution were prepared and stored at 4 °C for use. The affinities were tested following the procedure reported by Hu et al[4].

Series [4] is described as follows: Metabolic stability in human liver microsomes. It is filed as in vitro ADME. The settings on record: human, microsomes. How it is done: (§1) The metabolic stability is an important focus for further compound optimisation. Compounds 7f, 7i, and AB928 were chosen to evaluate the stability in rat liver microsomes and human liver microsomes. For the microsomal metabolic experiment, 7-ethoxycoumarin (7-EC) was used as a control. As shown in Table 4 (see Supporting information for raw data), the CLint(liver) of 7-EC in rats and humans was 10.0 and 9.0 ml/min/g liver, respectively, indicating the experimental test system was reliable.
(§2) Metabolic stabilities of compounds 7f, 7i, and AB928 in liver microsomes were studied with pooled human (male) liver microsomes solution (20 mg/ml) and male Sprague–Dawley rats pooled liver microsomes solution (20 mg/ml) purchased from Research Institute for Liver Diseases (Shanghai) Co. Ltd. Both liver microsomes solutions (140 μl) were diluted by 3948 μl of water and 280 μl of phosphate buffered saline. The assay procedure: 640 μl of diluted liver microsomes solution was added to a solution of compound working solution (16 μl, 25 μM in DMSO) and the mixed solution was incubated at 37 °C for 5 min. Then 160 μl of NADPH generating system was added and take out 100 μl from the mixed solution was added 200 μl of acetonitrile solution to stop the reaction at the set incubation time (0 min, 10 min, 20 min, 30 min, 40 min, 50 min, and 60 min). All stopped reaction solutions were vortex mixed (3 min) and centrifuged (10,000 rpm, 4 °C for 10 min). Then 50 μl of the supernatant was analysed by UPLC-MS/MS system (details of the analytical method see Supporting information). […]
(§3) 8. Metabolic stability in human and rat liver microsomes
(§4) Metabolic stabilities of compounds 7f, 7i and AB928 in liver microsomes were studied with pooled human (male) liver microsomes solution (20 mg/mL) and male Sprague - Dawley rats pooled liver microsomes solution (20 mg/mL) purchased from Research Institute for Liver Diseases (Shanghai) Co. Ltd. Both liver microsomes solutions (140 μL) were diluted by 3948 μL of water and 280 μL of phosphate buffered saline. The assay procedure: 640 μL of diluted liver microsomes solution was added to a solution of compound working solution (16 μL, 25 μM in DMSO) and the mixed solution was […]
(§5) (1 picture or pasted object on this page, not shown here) […]
(§6) incubated at 37 ℃ for 5 min. Then 160 μL of NADPH generating system was added and take out 100 μL from the mixed solution was added 200 μL of acetonitrile solution to stop the reaction at the set incubation time (0 min, 10 min, 20 min, 30 min, 40 min, 50 min, and 60 min). All stopped reaction solutions were vortex mixed (3 min) and centrifuged (10000 rpm, 4 ℃ for 10 min). Then 50 μL of the supernatant was analyzed […]
(§7) 8.2 Chromatography and mass spectrometry conditions
(§8) UPLC was performed using an […] UPLC system (Waters, Milford, MA, […]
(§9) USA). Separation was achieved on a Waters BEH C18 column(100 mm × 2.1 mm， 1.7 μm) at 40 ℃. The injection volume of the sample solution was 5 μL. The mobile phase consisted of water (0.1% formic acid and ammonium acetate) and acetonitrile solution (20:80, v/v) at a flow rate of 0.4 mL/min within a running time of 6 min. Mass spectrometric analysis was performed on a Waters Xevo TQ-S triple quadrupole instrument using electrospray ionization in positive mode. Quantification was performed using multiple reaction monitoring (MRM) mode to monitor precursor-product ion transitions (Table S1).
(§10) Table S1. Conditions of MRM Detection. […]
(§11) Table S2. Raw data of metabolic stability in human and rat liver microsomes. […]
(§12) (min) Hum Rat Hum Rat Hum Rat Hum Rat
(§13) 9. Analytical method of pharmacokinetics assay
(§14) Animal experiments were performed according to the institutional ethical guidelines on animal care and approved by the Institute Animal Care and Use Committee at Binzhou […]
(§15) Female Bal b/c mice (sourced from Jinan Pengyue Experimental Animal Breeding […]
In general terms: Liver microsomes are vesicles of endoplasmic reticulum, rich in cytochrome P450 enzymes.

A short description of series [5]: Metabolic stability in rat liver microsomes. It is filed as in vitro ADME, Sprague–Dawley rats. The protocol:
as §1, §2, §3, §4, §5, §6, §7, §8, §9, §10, §11, §12, §13, §14, §15

Where [6] appears, read: CHO-K1, compound at 10 nM, relative to ZM241385 at 1 μM, mean ± SEM, read-out: hA2A AR (%) inhibition of cAMP, 10 nM.
Where [7] appears, read: CHO-K1, compound at 100 nM, relative to ZM241385 at 1 μM, mean ± SEM, read-out: hA2A AR (%) inhibition of cAMP, 100 nM.
The mark [8] stands for this setting: CHO-K1, compound at 1000 nM, relative to ZM241385 at 1 μM, mean ± SEM, read-out: hA2A AR (%) inhibition of cAMP, 1000 nM.
The mark [9] stands for this setting: CHO-K1, compound at 100 nM, relative to ZM241385 at 1 μM, mean ± SEM, read-out: hA2B AR (%) inhibition of cAMP, 100 nM.

SMILES strings stand for the structures. Like-named read-outs stand apart in the source and are kept apart here.

T1 sequence (P29274 whole entry): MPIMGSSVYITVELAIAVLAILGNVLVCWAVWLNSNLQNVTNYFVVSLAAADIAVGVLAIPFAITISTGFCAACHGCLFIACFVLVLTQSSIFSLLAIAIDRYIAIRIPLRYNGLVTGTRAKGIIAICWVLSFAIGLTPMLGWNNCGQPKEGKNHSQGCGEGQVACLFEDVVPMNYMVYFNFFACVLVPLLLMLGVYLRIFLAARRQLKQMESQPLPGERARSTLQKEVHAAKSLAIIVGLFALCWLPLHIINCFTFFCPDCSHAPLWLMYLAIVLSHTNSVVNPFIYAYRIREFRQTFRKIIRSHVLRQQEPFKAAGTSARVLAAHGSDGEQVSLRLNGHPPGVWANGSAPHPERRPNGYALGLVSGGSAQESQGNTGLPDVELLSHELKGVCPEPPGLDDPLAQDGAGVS

In turn, `Cc1c(C#N)cccc1-c1cc(-c2cn(Cc3cccc(C(=O)O)n3)nn2)nc(N)n1` [Compound 7h, 6-((4-(2-amino-6–(3-cyano-2-methylphenyl)pyrimidin-4-yl)-1H-1,2,3-triazol-1-yl)methyl)picolinic acid] gave a melting point of 176 to 177 °C. Moreover, the inhibition at 0.01 µM in series [1] (setting [6]) came out at 37.9 ± 2.32%. In addition, the inhibition at 0.1 µM in series [1] (setting [7]) came out at 55.2 ± 4.27%. In addition, the inhibition at 1 µM in series [1] (setting [8]) is 92.6 ± 1.91%. Moreover, the inhibition at 0.1 µM in series [2] (setting [9]) was found to be 54.8 ± 2.09%.

`CC(C)(O)c1cccc(Cn2cc(-c3cc(-c4cccc(CF)c4)nc(N)n3)nn2)n1` [Compound 22, 2-(6-((4-(2-amino-6-(3-(fluoromethyl)phenyl)pyrimidin-4-yl)-1H-1,2,3-triazol-1-yl)methyl)pyridin-2-yl)propan-2-ol] showed a melting point of 76 to 77 °C. Further, in series [1] (CHO cells expressing hA2A AR, mean ± SEM, read-out: cAMP IC50 hA2A AR), the IC50 came out at 67.2 ± 10.9 nM. Moreover, the inhibition at 0.01 µM in series [1] (setting [6]) was 22.4 ± 11.9%. Further, the inhibition at 0.1 µM in series [1] (setting [7]) was 94.7 ± 4.43%. For the same molecule, the inhibition at 1 µM in series [1] (setting [8]) was determined as 93.6 ± 2.76%. In series [1] (ratio of cAMP IC50 values vs 7i), the “fold less active than compound 7i (cAMP IC50, A2A receptor)” value was determined as 11 fold. Moreover, the IC50 in series [2] (CHO cells expressing hA2B AR, mean ± SEM, read-out: cAMP IC50 hA2B AR) was 178 ± 9.89 nM. Also, in series [2] (setting [9]), the inhibition at 0.1 µM was 19.9 ± 1.85%.

In the case of `Cc1c(C#N)cccc1-c1cc(-c2cn(Cc3cccc(C(C)(C)O)n3)nn2)nc(N)n1` [AB928, reference compound], the figures for the IC50 in series [1], in series [2] and in series [3] were 2.75 ± 0.12 nM, 25.5 ± 0.35 nM and 25.2 ± 0.74 nM, respectively. Besides, in series [1] (CHO-K1, read-out: hA2A AR (%) inhibition of cAMP, 10 nM), the inhibition at 0.01 µM amounted to 20 ± 6.46%. For the same molecule, the inhibition at 0.1 µM in series [1] (CHO-K1, read-out: hA2A AR (%) inhibition of cAMP, 100 nM) is 96.8 ± 7.16%; in series [2] (CHO-K1, read-out: hA2B AR (%) inhibition of cAMP, 100 nM), 103 ± 1.04%. In addition, the inhibition at 1 µM in series [1] (CHO-K1, read-out: hA2A AR (%) inhibition of cAMP, 1000 nM) was determined as 101 ± 5.55%. The “CLint(liver) Hum” value in series [4] is on record as 0.17 mL/min/g. The half-life at 0.49 µM was 7.22 h in series [4] (male) and 0.563 h in series [5] (male, Sprague-Dawley, rat, pooled rat liver microsomes, read-out: T1/2 Rat). The amount remaining at 10 min, 0.49 µM was 96.2% in series [4] (male) and 74.7% in series [5] (male, Sprague-Dawley, pooled rat liver microsomes, rat liver microsomes, 10 min). Further, the amount remaining at 20 min, 0.49 µM in series [4] (male) was determined as 104%; in series [5] (male, Sprague-Dawley, pooled rat liver microsomes, rat liver microsomes, 20 min) it was 67.4%. Besides, the amount remaining at 0.5 h, 0.49 µM in series [4] (male) was determined as 97%; in series [5] (male, Sprague-Dawley, pooled rat liver microsomes, rat liver microsomes, 30 min), 53.1%. Moreover, the share remaining at 40 min, 0.49 µM in series [4] (male) stood at 91.8%; in series [5] (male, Sprague-Dawley, pooled rat liver microsomes, rat liver microsomes, 40 min) it was 42.8%. Also, the share remaining at 50 min, 0.49 µM in series [4] (male) turned out to be 89%; in series [5] (male, Sprague-Dawley, pooled rat liver microsomes, rat liver microsomes, 50 min) it was 35.6%. Also, the share remaining at 1 h, 0.49 µM in series [4] (male) was 94.4%; in series [5] (male, Sprague-Dawley, pooled rat liver microsomes, rat liver microsomes, 60 min, read-out: Remaining (%, T = 60min) Rat), 28.1%. Further, the “CLint(liver) Rat” value in series [5] (rat liver microsomes) came to 2.15 mL/min/g.

Consider `Cc1c(C#N)cccc1-c1cc(-c2cn(Cc3cccc(C(=O)NCCO)n3)nn2)nc(N)n1` [Compound 7j, 6-((4-(2-Amino-6-(3-cyano-2-methylphenyl)pyrimidin-4-yl)-1H-1,2,3-triazol-1-yl)methyl)-N-(2-hydroxyethyl)picolinamide], for which the melting point was in the range of 208 to 209 °C. The inhibition at 0.01 µM in series [1] (setting [6]) came out at 22.4 ± 6.68%. In series [1] (setting [7]), the inhibition at 0.1 µM worked out at 82.2 ± 1.26%. Further, the inhibition at 1 µM in series [1] (setting [8]) amounted to 101 ± 4.62%. Also, the inhibition at 0.1 µM in series [2] (setting [9]) is 82.4 ± 4.52%.

Molecule `COC(=O)c1cccc(Cn2cc(-c3cc(-c4cccc(C#N)c4C)nc(N)n3)nn2)n1` [Compound 7d, Methyl 6-((4-(2-amino-6-(3-cyano-2-methylphenyl)pyrimidin-4-yl)-1H-1,2,3-triazol-1-yl)methyl)picolinate] gave a melting point of 105 to 106 °C. In addition, the inhibition at 0.01 µM in series [1] (setting [6]) was found to be 40.8 ± 9.01%. In series [1] (setting [7]), the inhibition at 0.1 µM turned out to be 63.4 ± 1.39%. The inhibition at 1 µM in series [1] (setting [8]) is 91.3 ± 4.28%. Further, in series [2] (setting [9]), the inhibition at 0.1 µM amounted to 80.3 ± 1.84%.
